Data reported in a compilation of properties of binary mixtures (doi:10.1021/acs.jpcc.8b05193).

Assay: xn = mol fraction of the nth substance listed
Details: 100 kPa

O=S(=O)([N-]S(=O)(=O)C(F)(F)F)C(F)(F)F.[Li+] + O
Details	electrical conductivity [S/m]
260.73 K, x2 = 0.7857	0.407
261.98 K, x2 = 0.8065	0.617
262.18 K, x2 = 0.8855	1.33
262.4 K, x2 = 0.9148	1.46
262.6 K, x2 = 0.8271	0.808
262.82 K, x2 = 0.8495	1.04
265.92 K, x2 = 0.7857	0.55
266.56 K, x2 = 0.8065	0.767
266.96 K, x2 = 0.8495	1.25
266.96 K, x2 = 0.9761	1.36
267.38 K, x2 = 0.8855	1.66
267.6 K, x2 = 0.9148	1.86
270.7 K, x2 = 0.7857	0.684
271.54 K, x2 = 0.8065	0.966
271.96 K, x2 = 0.9761	1.73
272.15 K, x2 = 0.8271	1.21
272.6 K, x2 = 0.9148	2.27
273.4 K, x2 = 0.7538	0.461
273.4 K, x2 = 0.8495	1.62
275.7 K, x2 = 0.7857	0.843
277.15 K, x1 = 0.0039	0.623
277.35 K, x2 = 0.8065	1.16
277.35 K, x2 = 0.8855	2.54
277.35 K, x2 = 0.9761	2.06
277.55 K, x2 = 0.8271	1.51
277.97 K, x2 = 0.7538	0.579
277.97 K, x2 = 0.9148	2.88
278.19 K, x2 = 0.8495	1.94
280.67 K, x2 = 0.7857	1.06
281.51 K, x2 = 0.8271	1.8
281.93 K, x2 = 0.8855	2.94
282.13 K, x2 = 0.9761	2.49
282.32 K, x1 = 0.0039	0.736
282.32 K, x2 = 0.8065	1.43
282.55 K, x2 = 0.9148	3.3
282.74 K, x2 = 0.8495	2.22
285.45 K, x2 = 0.7857	1.23
286.71 K, x2 = 0.9148	3.94
286.9 K, x2 = 0.8271	2.11
287.1 K, x2 = 0.8065	1.66
287.32 K, x2 = 0.8855	3.47
287.52 K, x2 = 0.9761	2.94
287.94 K, x2 = 0.8495	2.65
291.06 K, x2 = 0.7857	1.46
291.46 K, x2 = 0.8271	2.41
291.88 K, x2 = 0.8855	3.98
292.1 K, x2 = 0.9761	3.33
292.52 K, x2 = 0.7538	1.02
292.71 K, x2 = 0.9148	4.51
293.13 K, x2 = 0.8495	3.17
295.84 K, x2 = 0.7857	1.71
296.88 K, x2 = 0.6988	0.538
296.88 K, x2 = 0.9761	3.81
297.29 K, x2 = 0.8065	2.22
297.29 K, x2 = 0.8855	4.65
297.49 K, x2 = 0.7538	1.19
297.49 K, x2 = 0.8495	3.51
297.49 K, x2 = 0.9148	5.33
298.11 K, x1 = 0.0039	1.07
300.4 K, x2 = 0.7857	1.96
302.47 K, x1 = 0.0039	1.21
302.47 K, x2 = 0.6988	0.636
302.47 K, x2 = 0.8855	5.16
302.69 K, x2 = 0.9761	4.37
303.11 K, x2 = 0.8065	2.62
305.59 K, x2 = 0.7857	2.24
307.05 K, x2 = 0.8855	5.67
307.05 K, x2 = 0.9148	6.42
307.24 K, x2 = 0.6988	0.767
307.46 K, x1 = 0.0039	1.35
307.46 K, x2 = 0.8271	3.62
307.46 K, x2 = 0.8495	4.46
310.79 K, x2 = 0.7857	2.57
312.02 K, x2 = 0.9761	5.38
312.24 K, x2 = 0.7538	1.8
312.24 K, x2 = 0.8271	4.02
312.24 K, x2 = 0.8495	4.95
312.66 K, x1 = 0.0039	1.51
312.66 K, x2 = 0.8855	6.42
312.66 K, x2 = 0.9148	7.28
313.05 K, x2 = 0.6601	0.528
316.6 K, x1 = 0.0039	1.62
316.8 K, x2 = 0.8855	7.06
317.02 K, x2 = 0.8065	3.59
317.21 K, x2 = 0.9761	5.97
317.41 K, x2 = 0.9148	8.07
317.63 K, x2 = 0.6601	0.604
317.83 K, x2 = 0.7538	2.06
321.79 K, x2 = 0.8065	3.94
321.79 K, x2 = 0.8855	7.59
321.99 K, x1 = 0.0039	1.78
322.19 K, x2 = 0.8271	4.85
322.41 K, x2 = 0.9148	8.69
322.61 K, x2 = 0.8495	6.03
322.83 K, x2 = 0.6601	0.692
323.03 K, x2 = 0.6988	1.18
326.35 K, x2 = 0.7857	3.51
326.77 K, x1 = 0.0039	1.92
326.97 K, x2 = 0.8855	8.33
327.19 K, x2 = 0.7538	2.52
327.19 K, x2 = 0.9148	9.45
327.38 K, x2 = 0.9761	7.13
327.8 K, x2 = 0.8495	6.49
328.02 K, x2 = 0.8065	4.56
328.64 K, x2 = 0.6601	0.833
332.16 K, x1 = 0.0039	2.08
332.58 K, x2 = 0.6988	1.52
332.58 K, x2 = 0.9148	10
332.78 K, x2 = 0.9761	7.67
333.42 K, x2 = 0.6601	0.945
336.94 K, x2 = 0.8271	6.35
337.16 K, x1 = 0.0039	2.2
337.36 K, x2 = 0.8065	5.27
337.55 K, x2 = 0.8495	7.59
337.55 K, x2 = 0.9148	10.7
337.78 K, x2 = 0.9761	8.25
337.97 K, x2 = 0.7538	3.13
338.19 K, x2 = 0.6601	1.05
338.19 K, x2 = 0.6988	1.73
342.33 K, x2 = 0.8495	8.16
342.33 K, x2 = 0.9148	11.6
342.55 K, x2 = 0.6988	1.88
342.55 K, x2 = 0.8855	10.4
342.75 K, x2 = 0.9761	8.87
345.65 K, x2 = 0.7857	4.95
347.11 K, x2 = 0.8855	11
347.33 K, x2 = 0.6601	1.35
347.33 K, x2 = 0.8065	6.03
347.33 K, x2 = 0.8271	7.51
347.75 K, x2 = 0.9148	12.5
347.94 K, x2 = 0.7538	3.73
350.43 K, x2 = 0.7857	5.27
352.11 K, x2 = 0.8495	9.06
352.3 K, x1 = 0.0039	2.65
352.52 K, x2 = 0.9148	13
352.72 K, x2 = 0.8271	7.91
352.72 K, x2 = 0.9761	9.74
352.92 K, x2 = 0.6601	1.48
353.14 K, x2 = 0.6988	2.34
353.34 K, x2 = 0.7538	4.02
356.66 K, x2 = 0.8065	6.91
356.88 K, x2 = 0.6988	2.49
357.08 K, x2 = 0.9761	10.3
357.3 K, x2 = 0.8271	8.33
357.3 K, x2 = 0.8495	9.74
357.5 K, x1 = 0.0039	2.85
357.7 K, x2 = 0.6601	1.64
357.92 K, x2 = 0.7538	4.32
359.79 K, x2 = 0.7857	6.03
360.82 K, x2 = 0.8065	7.28
360.82 K, x2 = 0.9761	10.7
361.66 K, x2 = 0.8495	10.3
361.66 K, x2 = 0.8855	13.2
361.86 K, x1 = 0.0039	3.04
362.05 K, x2 = 0.6601	1.82
362.05 K, x2 = 0.8271	8.96
362.47 K, x2 = 0.6988	2.76
363.11 K, x2 = 0.9148	14.5
363.31 K, x2 = 0.7538	4.7
